This note sets out measurements from US20120129811A1, “TRICYCLIC INHIBITORS OF PRO-MATRIX METALLOPROTEINASE ACTIVATION” (priority 2010, published 2012).

The target in experiment [1] is T1, proMMP9(20-445;ΔFnII) (SEQ ID NO:6) (Homo sapiens, UniProt P14780, DEL216-390).
T1 construct: start methionine (N); made in house; host or cells: E. coli BL21(DE3) RIL
T1 sequence (P14780 with tags, fused parts or gaps DEL216-390): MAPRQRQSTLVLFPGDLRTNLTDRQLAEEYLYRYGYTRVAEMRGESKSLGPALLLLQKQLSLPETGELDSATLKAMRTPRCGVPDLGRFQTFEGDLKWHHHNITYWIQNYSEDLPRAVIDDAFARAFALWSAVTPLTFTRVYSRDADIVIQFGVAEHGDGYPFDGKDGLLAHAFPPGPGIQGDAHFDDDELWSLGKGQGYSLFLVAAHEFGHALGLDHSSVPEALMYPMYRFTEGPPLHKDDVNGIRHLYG
In words: ThermoFluor binding assay with proMMP9(20-445;ΔFnII). The procedure:
(§1) The ThermoFluor® (TF) assay is a 384-well plate-based binding assay that measures thermal stability of proteins (Biomol Screen 2001, 6, 429-40; Biochemistry 2005, 44, 5258-66). The experiments were carried out using instruments available from Johnson & Johnson Pharmaceutical Research & Development, LLC. TF dye used in all experiments was […] (1,8-ANS) (Invitrogen: A-47).
(§2) Compounds were arranged in a pre-dispensed plate (Greiner Bio-one: 781280), wherein compounds were serially diluted in 100% DMSO across 11 columns within a series. Columns 12 and 24 were used as DMSO reference and contained no compound. For multiple compound concentration-response experiments, the compound aliquots (50 nL) were robotically predispensed directly into black 384-well polypropylene PCR microplates (Abgene: TF-0384/k) using a Cartesian Hummingbird liquid handler (DigiLab, Holliston, Mass.). Following compound dispense, protein and dye solutions were added to achieve the final assay volume of 3 μL. The assay solutions were overlayed with 1 μL of silicone oil (Fluka, type DC 200: 85411) to prevent evaporation.
(§3) Assay plates were robotically loaded onto a thermostatically controlled PCR-type thermal block and then heated from 40 to 90° C. at a ramp-rate of 1° C./min for all experiments. Fluorescence was measured by continuous illumination with UV light (Hamamatsu LC6) supplied via fiber optics and filtered through a band-pass filter (380-400 nm; >60D cutoff). Fluorescence emission of the entire 384-well plate was detected by measuring light intensity using a CCD camera (Sensys, Roper Scientific) filtered to detect 500±25 nm, resulting in simultaneous and independent readings of all 384 wells. A single image with 20-sec exposure time was collected at each temperature, and the sum of the pixel intensity in a given area of the assay plate was recorded vs temperature and fit to standard equations to yield the Tm (J Biomol Screen 2001, 6, 429-40).
(§4) Thermodynamic parameters necessary for fitting compound binding for each proMMP were estimated by differential scanning calorimetry (DSC) and from ThermoFluor® data. The heat capacity of unfolding for each protein was estimated from the molecular weight and from ThermoFluor® dosing data.
ThermoFluor® with proMMP9(20-445; ΔFnII (SEQ ID NO:6)
The protein sample preparations included a desalting buffer exchange step via a PD-10 gravity column (GE Healthcare). The desalting buffer exchange was performed prior to diluting the protein to the final assay concentration of 2.8 μM proMMP9(20-445;ΔFnII) (SEQ ID NO:6). The concentration of proMMP9(20-445;ΔFnII) (SEQ ID NO:6) was determined spectrophotometrically based on a calculated extinction coefficient of ε280=39880 M^−1 cm^−1, a calculated molecular weight of 28.2 kDa, and calculated pI of 5.5. ThermoFluor® reference conditions were define as follows: 80 μg/mL (2.8 μM) proMMP9(20-445;ΔFnII) (SEQ ID NO:6), 50 μM 1,8-ANS, pH 7.0 Buffer (50 mM HEPES pH 7.0, 100 mM NaCl, 0.001% Tween-20, 2.5 mM MgCl2, 300 μM CaCl2). The thermodynamic parameters for proMMP9(20-445;ΔFnII) (SEQ ID NO:6) are as follows: Tm (° C.)=72 (+/−0.1), ΔUH(Tm) (cal mol^−1)=160000(+/−5000), ΔUSTm (cal mol^−1 K^−1)=434, ΔUCp (cal mol^−1 K^−1)=2400.

Experiment [2] deals with T2, full-length proMMP9(1-707) activation by catalytic MMP3 (Homo sapiens, UniProt P14780, R574P).
T2 construct: made in house; host or cells: proMMP9: HEK293 (secreted); MMP3: E. coli
T2 sequence (P14780 20-707 R574P): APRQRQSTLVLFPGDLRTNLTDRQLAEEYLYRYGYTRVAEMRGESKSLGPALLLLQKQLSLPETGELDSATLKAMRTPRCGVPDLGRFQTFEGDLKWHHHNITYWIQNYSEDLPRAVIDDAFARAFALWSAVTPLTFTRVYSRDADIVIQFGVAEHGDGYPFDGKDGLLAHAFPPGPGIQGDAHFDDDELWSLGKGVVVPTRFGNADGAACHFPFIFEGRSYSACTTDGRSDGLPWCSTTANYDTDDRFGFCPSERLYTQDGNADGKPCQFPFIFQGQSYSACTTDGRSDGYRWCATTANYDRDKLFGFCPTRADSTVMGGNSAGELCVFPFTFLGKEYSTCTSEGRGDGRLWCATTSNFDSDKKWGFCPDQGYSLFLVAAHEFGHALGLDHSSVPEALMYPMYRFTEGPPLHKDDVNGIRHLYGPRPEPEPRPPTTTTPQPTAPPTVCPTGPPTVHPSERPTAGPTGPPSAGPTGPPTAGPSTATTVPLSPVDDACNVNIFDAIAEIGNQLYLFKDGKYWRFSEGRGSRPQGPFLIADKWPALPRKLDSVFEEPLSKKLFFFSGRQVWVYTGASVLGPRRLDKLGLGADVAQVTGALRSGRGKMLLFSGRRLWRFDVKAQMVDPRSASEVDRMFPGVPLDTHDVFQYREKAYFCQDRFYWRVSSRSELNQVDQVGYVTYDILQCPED
In words: proMMP9/MMP3 P126 Activation Assay. Type of experiment: biochemical. The method, then:
proMMP9/MMP3 P126 Activation Assay
The reaction volume was 50 μL. […] Reactivity of residual MMP3 towards P-126 substrate was minimal under these conditions.

Experiment [3] deals with T3, proMMP9(67-444;ΔFnII) (SEQ ID NO:5) (Homo sapiens, UniProt P14780, DEL216-390).
T3 construct: start methionine (N); made in house; host or cells: E. coli BL21(DE3) RIL
T3 sequence (P14780 with tags, fused parts or gaps DEL216-390): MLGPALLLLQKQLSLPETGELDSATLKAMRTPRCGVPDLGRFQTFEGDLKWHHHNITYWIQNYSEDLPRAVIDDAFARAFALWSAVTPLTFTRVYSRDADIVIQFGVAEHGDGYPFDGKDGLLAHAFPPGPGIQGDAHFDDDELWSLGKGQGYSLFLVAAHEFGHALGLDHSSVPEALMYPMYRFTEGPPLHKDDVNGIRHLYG
Put plainly: ThermoFluor binding assay with proMMP9(67-444;ΔFnII). The procedure: as §1, §2, §3, §4
ThermoFluor® with proMMP9(67-444;ΔFnM (SEQ ID NO:5)
The protein sample preparations had to include a desalting buffer exchange step via a PD-10 gravity column (GE Healthcare). The desalting buffer exchange was performed prior to diluting the protein to the final assay concentration of 3.5 μM proMMP9(67-444;ΔFnII) (SEQ ID NO:5). The concentration of proMMP9(67-444;ΔFnII) (SEQ ID NO:5) was determined spectrophotometrically based on a calculated extinction coefficient of ε280=33900 M^−1 cm^−1, a calculated molecular weight of 22.6 kDa, and calculated pI of 5.20. ThermoFluor® reference conditions were defined as follows: 80 μg/mL (3.5 μM) proMMP9(67-444;ΔFnII) (SEQ ID NO:5), 50 μM 1,8-ANS, pH 7.0 Buffer (50 mM HEPES pH 7.0, 100 mM NaCl, 0.001% Tween-20, 2.5 mM MgCl2, 300 μM CaCl2). The thermodynamic parameters for proMMP9(67-444;ΔFnII) (SEQ ID NO:5) are as follows: Tm (° C.)=63 (+/−0.1), ΔUH(Tm)(cal mol^−1)=105000(+/−5000), ΔUS(Tm) (cal mol^−1 K^−1)=450, ΔUCp (cal mol^−1 K^−1)=2000.

Counter-ions that a name gives are not always drawn.

As for `CCn1c(C)nc2ccc3sc(Nc4cc(S(N)(=O)=O)ccc4OC(C)C)nc3c21` [Example 118, 3-(8-Ethyl-7-methyl-8H-imidazo[4′,5′:3,4]benzo[2,1-d]thiazol-2-ylamino)-4-isopropoxy-benzenesulfonamide.TFA], the Kd was found to be 290 nM in experiment [1] and 860 nM in experiment [3]. For the same molecule, in experiment [2], the midpoint of inhibition, the IC50, lay at 510 nM.

For `Cn1cnc2c3nc(Nc4cc(C(N)=O)ccc4OC(F)(F)F)sc3ccc21` [Example 65, 3-(6-Methyl-6H-imidazo[4′,5′:3,4]-benzo[2,1-d]thiazol-2-ylamino)-4-trifluoromethoxy-benzamide.HCl], the figures for the Kd in experiment [1] and in experiment [3] were 77 nM and 250 nM, respectively. In addition, half-maximal inhibition in experiment [2] (IC50) was put at 150 nM.

As for `COc1ccncc1Nc1nc2c(ccc3ncn(CC(F)(F)F)c32)s1` [Example 153, N-(4-Methoxypyridin-3-yl)-8-(2,2,2-trifluoroethyl)-8H-imidazo[4′,5′:5,6]-benzo[1,2-d]thiazol-2-amine], the Kd in experiment [1] came to 1400 nM; in experiment [3] it was 600 nM. In experiment [2], 650 nM corresponded to half-maximal inhibition (IC50).

Regarding `COc1ccc(S(C)(=O)=O)cc1Nc1nc2c(ccc3cnccc32)s1` [Example 97, (5-Methanesulfonyl-2-methoxy-phenyl)-thiazolo[4,5-f]isoquinolin-2-yl-amine.TFA], the Kd came out at 4400 nM in experiment [1] and 1000 nM in experiment [3]. In experiment [2], this molecule showed an IC50 of 180 nM.

Regarding `CCn1c(C)nc2ccc3sc(Nc4cnccc4OC)nc3c21` [Example 152, 8-Ethyl-N-(4-methoxypyridin-3-yl)-7-methyl-8H-imidazo[4′,5′:5,6]benzo[1,2-d]thiazol-2-amine], in experiment [2], the IC50 is 550 nM.

On to `CNS(=O)(=O)c1ccc(OC)c(Nc2nc3c(ccc4c3ncn4C)s2)c1` [Example 82, 4-Methoxy-N-methyl-3-(6-methyl-6H-imidazo[4′,5′:3,4]-benzo[2,1-d]thiazol-2-ylamino)-benzenesulfonamide.HCl], for which the Kd amounted to 1500 nM in experiment [1] and 1100 nM in experiment [3]. In experiment [2], this molecule had an IC50 of 330 nM.

Regarding `COc1ccc(F)cc1Nc1nc2c(ccc3c2cnn3C)s1` [Example 93, (5-Fluoro-2-methoxy-phenyl)-(6-methyl-6H-3-thia-1,6,7-triaza-as-indacen-2-yl)-amine.HCl], the Kd in experiment [1] is 19000 nM; in experiment [3], 8100 nM. For the same molecule, inhibition in experiment [2] was half-maximal at 180 nM (IC50).

With `COc1ccc([N+](=O)[O-])cc1Nc1nc2c(ccc3c2ncn3C)s1` [Example 76, (2-Methoxy-5-nitro-phenyl)-(6-methyl-6H-imidazo[4′,5′:3,4]benzo[2,1-d]thiazol-2-yl)-amine.HCl], the Kd in experiment [1] is 530 nM; in experiment [3], 380 nM. For the same molecule, in experiment [2], the IC50 was determined as 100 nM.

Regarding `CCn1c(C)nc2ccc3sc(Nc4cc(F)ccc4OC)nc3c21` [Example 121, (8-Ethyl-7-methyl-8H-imidazo[4′,5′:3,4]benzo[2,1-d]thiazol-2-yl)-(5-fluoro-2-methoxy-phenyl)-amine.TFA], the Kd in experiment [1] turned out to be 4000 nM; in experiment [3] it was 860 nM. The molecule further showed an IC50 in experiment [2] of 310 nM.

Consider `CC(C)Oc1ccc(S(N)(=O)=O)cc1Nc1nc2c(ccc3c2ccn3C)s1` [Example 161, 4-isopropoxy-3-((6-methyl-6H-thiazolo[4,5-e]indol-2-yl)amino)benzenesulfonamide.HCl], for which the Kd in experiment [1] was 480 nM. The molecule also returned an IC50 in experiment [2] of 340 nM.

`CC(C)Cc1ccc(C(N)=O)cc1Nc1nc2c(ccc3c2ncn3C)s1` [Example 88, 4-Isobutyl-3-(6-methyl-6H-imidazo[4′,5′:3,4]-benzo[2,1-d]thiazol-2-ylamino)-benzamide]: the IC50 in experiment [2] was 3900 nM.

In experiment [2], `COc1ccc(C#N)cc1Nc1nc2c(ccc3ocnc32)s1` [Example 84, 4-Methoxy-3-(thiazolo[4′,5′:3,4]-benzo[2,1-d]oxazol-7-ylamino)-benzonitrile] came in with an IC50 of 750 nM.

In experiment [1], `Cn1ccc2c3nc(Nc4cc(S(N)(=O)=O)ccc4OC(F)(F)F)sc3ccc21` [Example 162, 3-((6-methyl-6H-thiazolo[4,5-e]indol-2-yl)amino)-4-(trifluoromethoxy)benzenesulfonamide.HCl] returned a Kd of 430 nM. The IC50 in experiment [2] is 640 nM.

Take `COc1ccc(S(C)(=O)=O)cc1Nc1nc2c(ccc3c2ccn3C)s1` [Example 163, N-(2-methoxy-5-(methylsulfonyl)phenyl)-6-methyl-6H-thiazolo[4,5-e]indol-2-amine.HCl]: the Kd in experiment [1] turned out to be 420 nM. For the same molecule, in experiment [2], the IC50 worked out at 110 nM.

For the molecule `COc1ccc(S(N)(=O)=O)cc1Nc1nc2c(ccc3cnccc32)s1` [Example 104, 4-Methoxy-3-(thiazolo[4,5-f]isoquinolin-2-ylamino)-benzenesulfonamide.TFA], the values for the Kd in experiment [1] and in experiment [3] were 7700 nM and 6100 nM, respectively.

`COc1cc([N+](=O)[O-])ccc1Nc1nc2c(ccc3c2ncn3C)s1` [Example 83, (2-Methoxy-4-nitro-phenyl)-(6-methyl-6H-imidazo[4′,5′:3,4]benzo[2,1-d]thiazol-2-yl)-amine.HCl]: the IC50 in experiment [2] is ~100 nM.

Molecule `COc1ccccc1Nc1nc2c(ccc3cnccc32)s1` [Example 100, (2-Methoxy-phenyl)-thiazolo[4,5-f]isoquinolin-2-yl-amine.TFA] yielded a Kd in experiment [1] of 76000 nM. Further, in experiment [2], the IC50 amounted to 1700 nM.

As to `COc1ccc(C#N)cc1Nc1nc2c(ccc3cnccc32)s1` [Example 151, 4-Methoxy-3-(thiazolo[4,5-f]isoquinolin-2-ylamino)-benzonitrile.TFA], the Kd in experiment [1] was > 95000 nM. Moreover, the IC50 in experiment [2] is > 20000 nM.
